Laboratory results: ChEMBL document CHEMBL2417546, “Antitrypanosomal triterpenoid with an ε-lactone E-ring from Salvia urmiensis” (J Nat Prod, 2013)

Assays:
[1] = Selectivity index, ratio of IC50 for rat L6 cells to IC50 for bloodstream form of Trypanosoma brucei rhodesiense STIB 900; format: toxicity, cell-based; settings: read-out: Ratio IC50
L6 = assay: Cytotoxicity against rat L6 cells by Alamar Blue assay; format: cell-based
[2] = test system: Trypanosoma brucei rhodesiense; assay: Antitrypanosomal activity against bloodstream form of Trypanosoma brucei rhodesiense STIB 900 by Alamar Blue assay; format: functional, organism-based

C[C@H]1[C@H](C)CC(=O)O[C@]2(C)CC[C@]3(C)C(=C[C@@H](O)[C@@H]4[C@@]5(C)[C@H](O)CC(=O)C(C)(C)[C@@H]5CC[C@]43C)[C@H]12
selectivity ratio [1]: 33.1
IC50 (L6): > 185 µM
IC50 [2]: 5.6 µM
